Data on ten molecules can be found in article PMC9738927, “A Newly Identified Monoterpenoid-Based Small Molecule Able to Support the Survival of Primary Cultured Dopamine Neurons and Alleviate MPTP-Induced Toxicity In Vivo” (Molecules, 2022).

In experiment [1] the test system is naïve primary midbrain dopamine neurons. Put plainly: Survival of naïve cultured dopamine neurons (TH-positive cell count). Type of experiment: cell-based, mouse. As for the experimental part: (§1) We developed a compound library containing 20 diol derivatives and screened them on cultured primary DA neurons (Supplementary Materials, Table S1). Compounds were taken at a dose of 0.1 and 1 μM (based on effective doses for the epoxydiol). Based on the screening results, we selected four compounds and tested them in a naïve and MPP^+-treated (1-methyl-4-phenylpyridinium (MPP^+), the neurotoxic metabolite of MPTP) DA culture at 1, 10, and 100 nM to select the compound with the lowest effective dose.
(§2) The survival of cultured mouse DA neurons was assessed as described before. Briefly, naïve or MPP^+ (dopaminergic selective neurotoxin)-challenged embryonic midbrain neurons were cultured in the presence or absence of a diol-like compound. The number of survived DA neurons was estimated after immunocytochemical staining with antibodies recognizing the key enzyme of dopamine synthesis—tyrosine hydroxylase.

Experiment [2] concerns MPP^+-treated primary midbrain dopamine neurons. Put plainly: Survival of MPP+-challenged cultured dopamine neurons (TH-positive cell count). Type of experiment: cell-based, mouse. On the procedure: as §1, §2
The subject of experiment [3] is MPTP-lesioned C57BL/6 mice. Nature of the experiment: DA and DOPAC levels in midbrain and striatum by HPLC-ED after MPTP lesion. Type of experiment: in vivo. As for the experimental part: Neurochemical analyses via HPLC-ED were conducted as described before. Microdissected samples of the striatum (ST) and midbrain were homogenized in 300 and 400 µL of cold 0.6 M HClO4, respectively, using a motor-driven grinder (Z359971, Sigma-Aldrich, USA) and the homogenate was spun for 15 min at 12,000 rpm (+4 °C). The pellet was diluted in 1 mL of 0.1 M NaCl and used for protein quantitation by Bradford (Bio Rad, USA) according to the manufacturer’s protocol. The clear supernatant was diluted twice with pure water and used for assay of DA and […] (DOPAC) by HPLC on Luna C18(2) column (5 μm particle size, L × I.D. 75 × 4.6 mm, Phenomenex, Torrance, CA, USA) with electrochemical detection (750 mV, DECADE II™ Electrochemical Detector; Antec, The Netherlands). The standard mixes containing 1, 2, and 3 ng of DA and DOPAC were repeatedly assayed throughout the entire procedure and used to plot the calibration curves for each substance. The areas of peaks were estimated using LabSolution LG/GC software version 5.54 (Shimadzu Corporation, Japan) and calibrated against the calibrated curves for corresponding standards. The contents of DA and DOPAC were expressed nanogram (ng) per milligram (mg) of protein assayed by Bradford.

For the next experiment, the system named is MPTP-treated mice. Set-up: method as in PMID 31464415. The conditions noted are these: related compound; cited from earlier work.
Experiment [4] relates to naïve primary midbrain dopamine neurons. On the set-up: method as in PMID 31464415. The conditions noted are these: cultured DA neurons; cited from earlier work.
[5] abbreviates: 1 uM, compared to VEH-treated wells.
Setting [6] is: positive control, compared to VEH.

For the molecule `C=C(CSCC(C)C)C1CC2OC2(C)C(O)C1O` (stereo not drawn) [Substance 11], the “Support effect / inhibition, Naïve dopamine neurons, 1 uM” value (“Support effect / inhibition … 1 uM” below) in experiment [1] (setting [5]) is “- - (Inhibition 69-30% – - -)”.

`C=C(CSCc1ccccc1)C1CC2OC2(C)C(O)C1O` (stereo not drawn) [Substance 13]: the “Support effect / inhibition … 1 uM” value in experiment [1] (setting [5]) is given as “- (29-1% – -)”.

For `C=C(CSC(C)(C)C)C1CC2OC2(C)C(O)C1O` (stereo not drawn) [Substance 10], the “Support effect / inhibition … 1 uM” value in experiment [1] (setting [5]) was “- (29-1% – -)”. As to `C=CC1(O)C(O)C(C)=CCC1C(=C)C` (stereo not drawn) [Substance 8], the “Support effect / inhibition, MPP+-treated dopamine neurons, 1 nM” value in experiment [2] (1 nM, compared to VEH-treated wells) is reported as 0 (0% – 0). Besides, in experiment [2] (10 nM, compared to VEH-treated wells), the “Support effect / inhibition, MPP+-treated dopamine neurons, 10 nM” value was 0 (0% – 0). For the same molecule, the “Support effect / inhibition, MPP+-treated dopamine neurons, 100 nM” value in experiment [2] (100 nM, compared to VEH-treated wells) was 0 (0% – 0). Consider `C=C(C)[C@@H]1CC=C(C)[C@@H](OC(C)=O)[C@@H]1OC(C)=O` [Substance 1], for which the inhibition at 1 µM in experiment [1] (Mus musculus, Neuron, 1 uM, compared to VEH-treated wells, read-out: Support effect / inhibition, Naïve dopamine neurons, 1 uM) fell in the range of 1 to 29%. Take `C=C(CSc1ccc(Cl)cc1)C1CC2OC2(C)C(O)C1O` (stereo not drawn) [Substance 9]: in experiment [1] (setting [5]), the “Support effect / inhibition … 1 uM” value is listed as “- (29-1% – -)”. In the case of `C#CC1(O)C(O)C(C)=CCC1C(=C)C` (stereo not drawn) [Substance 7], the “Support effect / inhibition … 1 uM” value in experiment [1] (setting [5]) is on record as “- (29-1% – -)”. In the case of `N[C@@H](Cc1ccc(O)c(O)c1)C(=O)O` [L-DOPA, reference compound], in experiment [3], the “MPTP-induced reduction in DA level in the midbrain” value is reported as “tended to alleviate”. As for `C=C(C)[C@@H]1C[C@H]2O[C@@]2(C)[C@@H](O)[C@@H]1O` [epoxydiol], the “antiparkinsonian activity in vivo (effective dose)” value in the experiment on MPTP-treated mice is reported as 20 mg/kg. For the same molecule, in experiment [4], the “effective concentration in survival assay for DA neurons” value is reported as 100 nM and the “effective doses in survival assay of cultured dopamine neurons” value is 0.1 to 1 µM.

B1: GDNF: glial cell line-derived neurotrophic factor, positive control in the neuron survival assays (protein, UniProt P39905 78-211, looked up)
Glial cell line-derived …: SPDKQMAVLPRRERNRQAAAANPENSRGKGRRGQRGKNRGCVLTAIHLNVTDLGLGYETKEELIFRYCSGSCDAAETTYDKILKNLSRNRRLVSDKVGQACCRPIAFDDDLSFLDDNLVYHILRKHSAKRCGCI
As to B1, the “survival of naïve primary midbrain dopamine neurons” value in experiment [1] (setting [6]) was “promotes the survival”. Also, the “survival of MPP+-treated primary midbrain dopamine neurons” value in experiment [2] (setting [6]) is on record as “promotes the survival”.
